Columns and labels:
[1] = target: T1, LTB4 Induced Ca^2 + flux (U937 cells) (Homo sapiens, UniProt Q15722); test: LTB4 induced calcium mobilization (Ca2+ flux) in U937 cells measured with fura-2; assay type: cell-based
T1 construct: endogenous in cells; host or cells: U937 cells, DMSO-differentiated, intact
Method: The methods employed were as follows.
Cells were grown both in T-flasks and in Spinner culture.
Harvested cells were resuspended at 2×10^6 cells/ml in Krebs Ringer Hensilet buffer containing 0.1% BSA (RIA grade), 1.1 mM MgSO4, 1.0 mM CaCl2 and 5 mM HEPES (pH 7.4, buffer B). The diacetomethoxy ester of fura-2 (fura-2/AM) was added to a final concentration of 2 uM and cells incubated in the dark for 30 minutes at 37° C. The cells were centrifuged at 800×g for 10 minutes and resuspended at 2×10^6 cells/ml in fresh buffer B and incubated at 37° C. for 20 minutes to allow for complete hydrolysis of entrapped ester. The cells were centrifuged at 800×g for 10 minutes and resuspended in cold fresh buffer B at 5×10^6 cells/ml. Cells were maintained on ice in the dark until used for fluorescent measurements.
The fluorescence of fura-2 containing U937 cells was measured with a fluorometer designed by the Johnson Foundation Biomedical Instrumentation Group. Fluorometer is equipped with temperature control and a magnetic stirrer under the cuvette holder. […] All experiments were performed at 37° C. with constant mixing.
U937 cells were diluted with fresh buffer to a concentration of 1×10^6 cells/ml and maintained in the dark on ice. Aliquots (2 ml) of the cell suspension were put into 4 ml cuvettes and the temperature brought up to 37° C. (maintained in 37° C. water bath for 10 min). Cuvettes were transferred to the fluorometer and fluorescence measured for about one minute before addition of stimulants or antagonists and followed for about 2 minutes post stimulus. Agonists and antagonists were added as 2 ul aliquots.
Antagonists were added first to the cells in the fluorometer in order to detect potential agonist activity. […] [Ca^2+ ]i was calculated using the following formula: [formula] F was the maximum relative fluorescence measurement of the sample. Fmax was determined by lysing the cells with 10 ul of 10% Triton X-100 (final Concentration 0.02%). After Fmax was determined 67 ul of 100 mM EGTA solution (pH 10) was added to totally chelate the Ca^2+ and quench the fura-2 signal and obtain the Fmin. […] The Ki for calcium mobilization was determined using the formula: [formula]

[2] = target: T2, [^3 H]-LTB4 binding sites on human U937 cell membranes (Homo sapiens, UniProt Q15722); test: Receptor binding affinity: competition for [3H]-LTB4 binding sites on human U937 cell membranes; conditions: [3H]-LTB4 about 0.2 nM, 25°, 30 minutes
T2 construct: Harvested U937 cells were washed with 50 mM Tris-HCl; endogenous in cells; host or cells: U937 cells (membrane-enriched fraction)
T2 sequence (Q15722 whole entry): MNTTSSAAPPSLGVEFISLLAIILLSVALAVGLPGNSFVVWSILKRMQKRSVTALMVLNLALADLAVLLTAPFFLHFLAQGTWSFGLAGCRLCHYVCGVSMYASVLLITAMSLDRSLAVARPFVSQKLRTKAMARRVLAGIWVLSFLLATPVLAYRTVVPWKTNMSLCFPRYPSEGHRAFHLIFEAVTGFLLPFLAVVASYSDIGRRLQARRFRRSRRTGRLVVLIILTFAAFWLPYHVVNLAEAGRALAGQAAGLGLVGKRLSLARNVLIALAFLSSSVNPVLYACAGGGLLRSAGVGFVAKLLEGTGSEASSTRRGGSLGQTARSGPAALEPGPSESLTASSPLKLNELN

T1 sequence (Q15722 whole entry): as above

SMILES | Ki [1] | Ki [2]
CCCCCCCCCCCOc1ccc([N+](=O)[O-])cc1C(SCCC(=O)O)SCCC(=O)O | 5 µM | 2.2 µM
CCCCCCCCCCCCc1ccccc1C(SCCC(=O)O)[S+]([O-])CCC(=O)O (stereo not drawn) | – | 5.3 µM
CCCCCCCCCCC#Cc1ccccc1C(SCCC(=O)O)SCCC(=O)O | – | 7 µM
O=C(O)CCSC(SCCC(=O)O)c1ccccc1CCCCCCCSc1ccc(F)cc1 | 6.4 µM | 3.3 µM
CCCCCCCCCC/C=C/c1ccccc1C(SCCC(=O)O)SCCC(=O)O | – | 4.3 µM
CCCCCCCCCCCOc1ccccc1C(SCCC(=O)O)SCCC(=O)O | – | 5.3 µM
O=C(O)CCSC(SCCC(=O)O)c1ccccc1CCCCCCCCCCc1ccccc1 | 4.8 µM | 11 µM
O=C(O)CCSC(SCCC(=O)O)c1ccccc1CCCCCCc1ccccc1 | – | 4.5 µM
O=C(O)CCSC(SCCC(=O)O)c1ccccc1OCCCCCCCc1ccccc1 | – | 5.3 µM
O=C(O)CCSC(SCCC(=O)O)c1cc(C(F)(F)F)ccc1CCCCCCCCc1ccccc1 | – | 9.6 µM
O=C(O)CCSC(SCCC(=O)O)c1ccccc1CCCCCCCCCCCC(F)(F)F | 7.8 µM | –
CCCCCCCCCC/C=C\c1ccccc1C(SCCC(=O)O)SCCC(=O)O | – | 7.3 µM
O=C(O)CCSC(SCCC(=O)O)c1cccc(CCCCCCCCc2ccccc2)c1 | 5.2 µM | 2.1 µM
O=C(O)CCSC(SCCC(=O)O)c1ccccc1CCCCCCCSc1ccc(Br)cc1 | 6.7 µM | 2.8 µM
C#CCCCCCCCCCOc1ccccc1C(SCCC(=O)O)SCCC(=O)O | – | 10 µM
CCCCCCCCCCCCc1ccccc1C(SCCC(=O)O)SCCC(=O)O | – | 6.5 µM
COc1ccc(SCCCCCCCc2ccccc2C(SCCC(=O)O)SCCC(=O)O)cc1 | 7.6 µM | 1.2 µM
O=C(O)CCSC(SCCC(=O)O)c1ccccc1CCCCCCCCc1ccccc1 | 7 µM | 4.4 µM
O=C(O)CCSC(SCCC(=O)O)c1ccc(C(F)(F)F)cc1CCCCCCCCc1ccccc1 | 8.7 µM | 1.3 µM
CCCCCCCCCCCOc1ccc(O)cc1C(SCCC(=O)O)SCCC(=O)O | – | 6 µM
CCCCCCCCCCCOc1ccc(Br)cc1C(SCCC(=O)O)SCCC(=O)O | 5.6 µM | 4.2 µM
